# Article PMC12396409, “Screening and hit evaluation of a microbial metabolite library against the pathogenic Plasmodium falciparum and Toxoplasma gondii parasites” (International Journal for Parasitology: Drugs and Drug …, 2025)
# Like-named read-outs stand apart in the source and are kept apart here.
# Legend:
# [1] = tested on: P. falciparum 3D7 parasites; experiment: P. falciparum growth inhibition assay, 2-cycle (120 h treatment), delayed-death screen and dose-response; format: cell-based, Plasmodium falciparum; settings: for activity at 2 µg/mL: Plasmodium falciparum, 3D7
# [2] = tested on: T. gondii RH strain (RH-Tub-eYFP) tachyzoites; experiment: microbe, parasite or virus in culture; format: cell-based, Toxoplasma gondii; settings: 72 h, 72 h; for percent parasite growth at 2 µg/mL: Toxoplasma gondii
# [3] = tested on: P. falciparum 3D7 parasites; experiment: P. falciparum growth inhibition assay, 1-cycle (72 h treatment), SYBR DNA staining (library screen at 2 μg/mL and dose-response); format: cell-based, Plasmodium falciparum; settings: for activity at 2 µg/mL: Plasmodium falciparum, 3D7
# [4] = P. falciparum 3D7, 120 h, library screen at 2 μg/mL, % growth, replicate 1
# [5] = P. falciparum 3D7, 120 h, library screen at 2 μg/mL, % growth, replicate 2
# [6] = T. gondii RH, library screen at 2 μg/mL, % growth, replicate 1
# [7] = T. gondii RH, library screen at 2 μg/mL, % growth, replicate 2
# [8] = P. falciparum 3D7, 72 h, library screen at 2 μg/mL, % growth, replicate 1
# [9] = P. falciparum 3D7, 72 h, library screen at 2 μg/mL, % growth, replicate 2
# [10] = library screen at 2 μg/mL, 120 h, % growth, replicate 1
# [11] = library screen at 2 μg/mL, 120 h, % growth, replicate 2
# [12] = library screen at 2 μg/mL, % growth, replicate 1
# [13] = library screen at 2 μg/mL, % growth, replicate 2
# [14] = library screen at 2 μg/mL, 72 h, % growth, replicate 1
# [15] = library screen at 2 μg/mL, 72 h, % growth, replicate 2
# [16] = P. falciparum 3D7, 120 h, parasite screen at 2 μg/mL, % growth, replicate 1
# [17] = P. falciparum 3D7, 120 h, parasite screen at 2 μg/mL, % growth, replicate 2
# [18] = T. gondii, parasite screen at 2 μg/mL, % growth, replicate 1
# [19] = T. gondii, parasite screen at 2 μg/mL, % growth, replicate 2
# [20] = P. falciparum 3D7, 72 h, parasite screen at 2 μg/mL, % growth, replicate 1
# [21] = P. falciparum 3D7, 72 h, parasite screen at 2 μg/mL, % growth, replicate 2
# [22] = P. falciparum, 120 h, screen at 2 μg/mL, replicate 1
# [23] = P. falciparum, 120 h, screen at 2 μg/mL, replicate 2
# [24] = T. gondii, screen at 2 μg/mL, replicate 1
# [25] = T. gondii, screen at 2 μg/mL, replicate 2
# [26] = P. falciparum, 72 h, screen at 2 μg/mL, replicate 1
# [27] = P. falciparum, 72 h, screen at 2 μg/mL, replicate 2
smiles,measurement,setting,value
Cc1cc(O)c2c(c1)O[C@@]1(C)CC[C@H]3C(C)(C)CCC[C@]34CO[C@@H]2[C@H]41 [Siccanin],activity at 2 µg/mL,"[1]; P. falciparum, 120 h, parasite screen 2 μg/mL, % growth, replicate 1, read-out: Pf_120h_%Growth_Rep1",73%
same,activity at 2 µg/mL,"[1]; P. falciparum, 120 h, parasite screen 2 μg/mL, % growth, replicate 2, read-out: Pf_120h_%Growth_Rep2",114%
same,percent parasite growth at 2 µg/mL,"[2]; T. gondii, parasite screen 2 μg/mL, % growth, replicate 1, read-out: Tg_72h_%Growth_Rep1",99.3%
same,percent parasite growth at 2 µg/mL,"[2]; T. gondii, parasite screen 2 μg/mL, % growth, replicate 2, read-out: Tg_72h_%Growth_Rep2",83.6%
same,activity at 2 µg/mL,"[3]; P. falciparum, 72 h, parasite screen 2 μg/mL, % growth, replicate 1, read-out: Pf_72h_%Growth_Rep1",76%
same,activity at 2 µg/mL,"[3]; P. falciparum, 72 h, parasite screen 2 μg/mL, % growth, replicate 2, read-out: Pf_72h_%Growth_Rep2",49.5%
CC(=O)OC1CCC2(C)C(CCC3C2CC(=O)C2(C)C3CC3OC4(CCC(C)CO4)C(C)C32)C1 (stereo not drawn) [BIA-H1764],Pf_120h_%Growth_Rep1,[1]; [4],85.47%
same,Pf_120h_%Growth_Rep2,[1]; [5],116.07%
same,Tg_72h_%Growth_Rep1,[2]; [6],117.31%
same,Tg_72h_%Growth_Rep2,[2]; [7],105.95%
same,Pf_72h_%Growth_Rep1,[3]; [8],86.38%
same,Pf_72h_%Growth_Rep2,[3]; [9],124.08%
COc1cc([C@H]2[C@@]3(O)[C@H](O)[C@H]4C[C@]2(O)[C@](O)(C(=O)O4)[C@H]3C(=O)c2ccccc2)oc(=O)c1 [Enterocin],Pf_120h_%Growth_Rep1,[1]; [10],80.40%
same,Pf_120h_%Growth_Rep2,[1]; [11],114.14%
same,Tg_72h_%Growth_Rep1,[2]; [12],101.62%
same,Tg_72h_%Growth_Rep2,[2]; [13],91.26%
same,Pf_72h_%Growth_Rep1,[3]; [14],81.25%
same,Pf_72h_%Growth_Rep2,[3]; [15],72.68%
CNC1CC2OC(C)(C1OC)n1c3ccccc3c3c4c(c5c6ccccc6n2c5c31)C(=O)NC4=O (stereo not drawn) [BIA-O1137],Pf_120h_%Growth_Rep1,[1]; [16],5.90%
same,Pf_120h_%Growth_Rep2,[1]; [17],15.39%
same,Tg_72h_%Growth_Rep1,[2]; [18],57.26%
same,Tg_72h_%Growth_Rep2,[2]; [19],18.54%
same,Pf_72h_%Growth_Rep1,[3]; [20],5.55%
same,Pf_72h_%Growth_Rep2,[3]; [21],3.48%
CC=C(C)C(O)C(C)C=C(C)C=CCC(C)=CCc1nc(OC)c(OC)c(O)c1C (stereo not drawn) [BIA-P1069],Pf_120h_%Growth_Rep1,[1]; [16],92.39%
same,Pf_120h_%Growth_Rep2,[1]; [17],102.66%
same,Tg_72h_%Growth_Rep1,[2]; [18],120.41%
same,Tg_72h_%Growth_Rep2,[2]; [19],75.10%
same,Pf_72h_%Growth_Rep1,[3]; [20],80.36%
same,Pf_72h_%Growth_Rep2,[3]; [21],61.30%
COc1ccc2c(c1)C(=O)NC(Cc1ccccc1)C(=O)NCCC(=O)N1CCCC1C(=O)N2 (stereo not drawn) [Aspercolorin],Pf_120h_%Growth_Rep1,[1]; [10],146.59%
same,Pf_120h_%Growth_Rep2,[1]; [11],102.81%
same,Tg_72h_%Growth_Rep1,[2]; [12],77.01%
same,Tg_72h_%Growth_Rep2,[2]; [13],95.41%
same,Pf_72h_%Growth_Rep1,[3]; [14],96.39%
same,Pf_72h_%Growth_Rep2,[3]; [15],82.46%
COc1cc(C)c2c(OC)cc(=O)oc2c1-c1c(OC)cc(C)c2c(OC)cc(=O)oc12 [BIA-K1634],Pf_120h_%Growth_Rep1,[1]; [4],81.50%
same,Pf_120h_%Growth_Rep2,[1]; [5],124.49%
same,Tg_72h_%Growth_Rep1,[2]; [6],128.61%
same,Tg_72h_%Growth_Rep2,[2]; [7],101.38%
same,Pf_72h_%Growth_Rep1,[3]; [8],79.71%
same,Pf_72h_%Growth_Rep2,[3]; [9],89.27%
CN[C@@H]1C[C@H]2O[C@@](C)([C@@H]1OC)n1c3ccccc3c3c4c(c5c6ccccc6n2c5c31)C(=O)N[C@H]4O [UCN-01],Pf_120h_%Growth_Rep1,[1]; [22],24.61%
same,Pf_120h_%Growth_Rep2,[1]; [23],12.22%
same,Tg_72h_%Growth_Rep1,[2]; [24],1.44%
same,Tg_72h_%Growth_Rep2,[2]; [25],1.53%
same,Pf_72h_%Growth_Rep1,[3]; [26],0.68%
same,Pf_72h_%Growth_Rep2,[3]; [27],-0.50%
C=C/C(C)=C/[C@H](C)C(=O)C[C@H](O)CC1CC(=O)NC(=O)C1 [Streptimidone],Pf_120h_%Growth_Rep1,"[1]; P. falciparum, 120 h, parasite screen 2 μg/mL, % growth, replicate 1",72.22%
same,Pf_120h_%Growth_Rep2,"[1]; P. falciparum, 120 h, parasite screen 2 μg/mL, % growth, replicate 2",22.01%
same,Tg_72h_%Growth_Rep1,"[2]; T. gondii, parasite screen 2 μg/mL, % growth, replicate 1",3.03%
same,Tg_72h_%Growth_Rep2,"[2]; T. gondii, parasite screen 2 μg/mL, % growth, replicate 2",2.79%
same,Pf_72h_%Growth_Rep1,"[3]; P. falciparum, 72 h, parasite screen 2 μg/mL, % growth, replicate 1",21.69%
same,Pf_72h_%Growth_Rep2,"[3]; P. falciparum, 72 h, parasite screen 2 μg/mL, % growth, replicate 2",38.20%
CCCC(=O)N[C@H]1CCOC1=O [Butyryl-L-homoserine lactone],Pf_120h_%Growth_Rep1,[1]; [22],71.18%
same,Pf_120h_%Growth_Rep2,[1]; [23],93.77%
same,Tg_72h_%Growth_Rep1,[2]; [24],135.04%
same,Tg_72h_%Growth_Rep2,[2]; [25],102.04%
same,Pf_72h_%Growth_Rep1,[3]; [26],70.61%
same,Pf_72h_%Growth_Rep2,[3]; [27],82.94%
